Source: patent US20070032410A1, “COMPOSITIONS AND METHODS FOR THE TREATMENT OF PSYCHIATRIC DISORDERS” (Atossa Healthcare, Inc., priority 2000, published 2007)
*1 amine or outer side, *2 acyl side, *3 side chain or, on linkers, in order; H or OH if unused. Where a SMILES comes first, the peptide text is derived from it. Bridges are numbered along the chain shown (N, C = ends). X1 = O=C(CCC[*:2])[*:1]

Tested on: tracheal/bronchial epithelial cell membrane inserts (EpiAirway)
Assay: Permeation of carbetocin formulations across tracheal/bronchial epithelial cell membrane inserts (EIA of basolateral media)
Format: in vitro ADME
Details: human, 1 h
Description: Permeation studies on varying formulations of carbetocin were completed using tracheal/bronchial epithelial cell membrane inserts. Samples were evaluated for appearance, color, clarity, pH, osmolality, cell viability using an MTT assay, cytotoxicity using an LDH assay, and transepithelial resistance and permeation.
Tracheal/bronchial epithelial cell membrane inserts (EpiAirway, MatTek Corp., Ashland, Mass.) were received the day before the experiment. Each tissue insert was placed in a well of a 6 well plate which contained 0.9 ml of serum free media and cultured at 37° C. for 24 hours to allow the tissues to equilibrate. The day of the experiment, transepithelial electrical resistance measurements were taken for each insert using a Tissue Resistance Measurement Chamber connected to an Epithelial Voltohmeter (World Precision Instruments, Inc., Sarasota, Fla.).
After the background transepithelial electrical resistance was determined, 1 ml of media was placed in the bottom of each well in a six well plate. The inserts were inverted and drained and placed into new wells with fresh media. For samples 1-12, 100 μl of the formulation to be tested was then added to an insert. For samples 13-92, 25 μl of the formulation was added to each insert. The inserts were placed in a shaking incubator at 100 rpm and 37° C. for one hour. The tissue inserts were then removed from the incubator. […]

## CC[C@H](C)[C@@H]1NC(=O)[C@H](Cc2ccc(OC)cc2)NC(=O)CCCSC[C@@H](C(=O)N2CCC[C@H]2C(=O)N[C@@H](CC(C)C)C(=O)NCC(N)=O)NC(=O)[C@H](CC(N)=O)NC(=O)[C@H](CCC(N)=O)NC1=O [carbetocin, 1-butanoic acid-2-(O-methyl-L-tyrosine)-1-carbaoxytocin] (Y(Me)IQNCPLG-NH2; linker N-5 via X1)
  permeation: less than 1.0%
